Details: 1 mAh H-cell, 1 M sodium chloride, Selemion AMVN, about 20 days
Source text: An H-cell can be used for the coulombic efficiency tests. […] The electrolyte can be dissolved in about 1 M sodium chloride for electrochemical stability testing. The moles of anolyte and catholyte molecules present can be controlled to achieve the desired capacity of 1 mAh. […] Selemion™ anion exchange membrane (AMVN) can be used for the H-cells.

Compound: C[N+](C)(C)CCC[N+](C)(C)CCCN1C(=O)c2ccc3c4ccc5c6c(ccc(c7ccc(c2c37)C1=O)c64)C(=O)N(CCC[N+](C)(C)CCC[N+](C)(C)C)C5=O [PDI-tetraammonium-Cl4]
- crossover in H-cell: almost no crossover

Reference: patent publication US20240304840A1 (priority 2023, published 2024)
